Reference: patent US20240238248A1, “PHARMACEUTICAL COMPOSITION FOR USE IN TREATING CEREBRAL INFARCTION” (Ji Xing Pharmaceuticals Hong Kong Limited, priority 2021, published 2024)
Like-named read-outs stand apart in the source and are kept apart here.

Key:
[1] = Toxicity test by two-week repeated administration to rats; settings: both sexes, rat, in vivo, intravenous over 30 minutes once daily for two weeks, 2.4, 12 and 60 mg/kg
Description: (§1) Rats (12 males and 12 females) under neither anesthesia nor unrestrained condition were repeatedly and intravenously given TMS-007 (preparation of a sodium-salt thereof) at a dose of 2.4, 12 and 60 mg/kg (continuously over 30 minutes) once daily for two weeks. The day after completion of repeated administration, the rats were subjected to autopsy. As a result, NOAEL of the toxicity test of rats by repeated administration was determined to be 60 mg/kg or more.

[2] = Toxicity test by two-week repeated administration to cynomolgus monkeys; settings: both sexes, cynomolgus monkey, in vivo, male and female, intravenous over 30 minutes once daily for two weeks, 3, 10 and 30 mg/kg
Description: (§2) Cynomolgus monkey (3 males per group and 3 females per group) under neither anesthesia nor unrestrained condition were repeatedly and intravenously given TMS-007 (preparation of a sodium-salt thereof) at a dose of 3, 10 and 30 mg/kg (continuously over 30 minutes) once daily for two weeks. The day after completion of repeated administration, the monkeys were subjected to autopsy. As a result, NOAEL of the toxicity test of cynomolgus monkeys by repeated administration was determined to be 10 mg/kg or more in both male and female groups.

[3] = Phase I test for healthy persons: pharmacokinetics; assay type: in vivo, human; settings: for Cmax / AUC(0-t): iv; for AUC(0-t): read-out: AUC0-24 (converted)
Description: (§3) Phase I test (placebo-control randomized double-blind test) for healthy adult males was carried out. Five cohorts each was constituted of 8 persons (active drug was administered to 6 person and a placebo was administered to 2 person) were used in the test. TMS-007 (SMTP-7 sodium salt preparation) or a placebo was administered intravenously once at a dose of 0.05, 0.25, 1, 3, and 6 mg/kg (equivalent) over 31 minutes (bolus over 1 minute+continuous administration over 30 minutes). The subjects determined to be eligible by a screening test were hospitalized the day before administration. Day 3 from completion of administration, the subjects were allow to leave the hospital. Day 7 from completion of administration, post (follow-up) examination was carried out for safety, tolerance and PK in the period up to Day 7.

healthy adult males = assay: Phase I test for healthy persons: safety and tolerance; assay type: in vivo, human
Description: as §3

[4] = Plasma pharmacokinetics in rats (repeated-dose study); assay type: in vivo; settings: rat, iv, male rats, 12 mg/kg-dose group, initial day of repeated-dose study, average
Description: as §1
(§4) Cmax and AUC0-24 values when TMS-007 was administered to rats and monkeys were as follows.

[5] = Plasma pharmacokinetics in monkeys (extended single-dose and repeated-dose study); assay type: in vivo; settings: monkey, iv, male monkeys, 10 mg/kg-dose group, extended single-dose study and repeated-dose study (first day), average
Description: as §2, §4

mice, rats and monkeys = assay: Pharmacological tests using mice, rats and monkeys; assay type: in vivo; settings: dose of 1 to 10 mg/kg
Description: as §4

[6] = system: cerebral infarction patients; assay: Phase II single dose study for cerebral infarction patients: safety; assay type: in vivo
Description: (§5) Randomized, double blind, placebo control, single dose, intravenous administration, parallel between groups and dose escalation regimen
(§6) Cerebral infarction patients within 12 hours from onset are used as subjects. Test subjects (90 patients: first cohort: 9, second cohort: 27, third cohort: 54) are determined in accordance with the following selection criteria and exclusion criteria.
To patients with acute cerebral infarction within 12 hours after onset, TMS-007 (SMTP-7 sodium salt preparation)) or a placebo were administered intravenously once (bolus over 1 minute+continuous injection over 30 minutes).
The frequency of occurrence of symptomatic intracranial hemorrhage with NIHSS score worsening of 4 or more points up to 24 hours after administration of TMS-007

[7] = system: cerebral infarction patients; assay: Phase II single dose study: mRS on Day 90 after administration; assay type: in vivo, human; settings: for Odds ratio, rate of obtaining outcome of mRS0-2: Day 90 after administration
Description: as §5, §6
(§7) To patients with acute cerebral infarction within 12 hours after onset, TMS-007 (SMTP-7 sodium salt preparation)) or a placebo were administered intravenously once (bolus over 1 minute+continuous injection over 30 minutes). The ratio of number of patients to which an active drug (TMS-007 sodium salt preparation) is to be administered relative to the number of patients to which a placebo is to be administered is set at 2:1 in the first and second cohorts and 1:1 in the third cohort as shown in Table 1 below.
(§8) • Safety (e.g., extracranial hemorrhage, major hemorrhage) up to Day 7 after administration • Symptomatic intracranial hemorrhage and non-symptomatic intracranial hemorrhage within 24 hours after administration • Value of mRS on Day 90 after administration • A rate of recanalization observed in an MRA image of 24 hours after administration • PK (concentration of unchanged form of TMS-007, Cmax, AUC) when TMS-007 was administered
In the FAS group, to mRS evaluation of individual dose groups (mRS 0-1 is assigned 1, mRS 2-6 is assigned 0) Day 90 after administration (Day 90), a logistic model using response, dose groups (TMS-007-combined group and placebo group), mRS on the base line, NIHSS score, age, blood pressure (systolic blood pressure) as explanatory variables was applied, odds ratio and 95% confidence interval of the TMS-007-combined group relative to the placebo group were estimated. The same estimation was carried out by using TMS-007 dose groups as the dose groups relative to the placebo group. More specifically, the odds ratios of individual TMS-007 dose groups relative to the placebo group and 95% confidence interval were estimated.

[8] = system: cerebral infarction patients observed to have occlusion; assay: Phase II single dose study: recanalization rate evaluated by MRA; assay type: in vivo, human; settings: TMS-007 administration group vs placebo group
Description: as §7, §8
The recanalization rate was evaluated by MRA. Patients (39 cases) observed to have occlusion at the time of enrollment and observed to be “canalized” or “partially canalized” on Day 2 were evaluated as recanalization cases. The ratio of the recanalization cases was 14/[…] cases (58.3%) in the TMS-007 administration groups and 4/15 cases (26.7%) in the placebo group. […]

[9] = Phase II single dose study: pharmacokinetics (plasma TMS-007 concentration); assay type: in vivo, human; settings: for concentration at 31 min / concentration at 2 h: human, plasma, intravenous, patients, read-out: plasma TMS-007 concentration (mean±standard deviation); for concentration at 31 min: 31 minutes after administration; for concentration at 2 h: 2 hours after the administration
Description: as §7, §8
In the PK analysis set, the dose groups except the placebo group were subjected to counting/analysis. The plasma TMS-007 concentrations (original scale value, mean±standard deviation) of the TMS-007 (1, 3, 6 mg/kg) groups (hereinafter described in the same order) 31 minutes after administration of a study drug were 7.294±1.472, 29.28±8.425 and 52.19±12.76 μg/mL, respectively; the plasma TMS-007 concentrations 2 hours after the administration were 0.1379±0.09777, 0.8970±0.5752 and 3.033±2.924 μg/mL, respectively. With respect to the plasma concentration value (logarithmic conversion value) of a study drug 31 minutes after initiation of administration, difference between doses was evaluated by one-way ANOVA using a dose as a factor. As a result, p value was less than 0.0001 and difference was statistically significant
When the dose proportionality of plasma TMS-007 concentration of the investigational new drug 31 minutes after initiation of administration, was evaluated, a point estimation value (two-sided 95% confidence interval) of slope (b) of a regression equation of power model was 1.042 (0.895-1.189). From this, linearity of TMS-007 in the dose range of 1 to 6 mg/kg was confirmed (see, FIG. 11).

[10] = male, human, blood, 0.05 mg/kg single i.v. over 31 minutes
[11] = male, human, blood, 0.25 mg/kg single i.v. over 31 minutes
[12] = male, human, blood, 1 mg/kg single i.v. over 31 minutes
[13] = male, human, blood, 3 mg/kg single i.v. over 31 minutes
[14] = male, human, blood, 6 mg/kg single i.v. over 31 minutes
[15] = TMS-007 combined group to placebo group, Day 90, FAS

## CC(C)=CCC/C(C)=C/CC[C@]1(C)Oc2c(c(O)cc3c2CN(CCC[C@@H](C(=O)O)N2Cc4c(cc(O)c5c4O[C@@](C)(CC/C=C(\C)CCC=C(C)C)[C@@H](O)C5)C2=O)C3=O)C[C@@H]1O [TMS-007, (S)-2,5-bis((2S,3S)-2-((E)-4,8-dimethylnona-3,7-dien-1-yl)-3,5-dihydroxy-2-methyl-7-oxo-3,4,7,9-tetrahydropyrano[2,3-e]isoindol-8(2H)-yl)pentanoic acid]
[1]
  NOAEL at 2 weeks: ≥ 60 mg/kg
[2]
  NOAEL at 2 weeks: ≥ 10 mg/kg
[3]; any one of the cohorts
  Unchanged form of TMS-007 in urine: not observed
[3]; immediately after completion of administration, all cohorts
  time of peak blood concentration: 31 min
[3]; male, human, blood, intravenous, regardless of the dose (0.05-6 mg/kg), read-out: half-lives in blood
  half-life: 10 to 15 min
[3]; [10]
  Cmax: 346 ng/mL
  AUC(0-t): 252 ng·h/mL
[3]; [11]
  Cmax: 1860 ± 150 ng/mL
  AUC(0-t): 1380 ng·h/mL
[3]; [12]
  Cmax: 6700 ng/mL
  AUC(0-t): 5020 ng·h/mL
[3]; [13]
  Cmax: 20300 ng/mL
  AUC(0-t): 16000 ng·h/mL
[3]; [14]
  Cmax: 49900 ± 5200 ng/mL
  AUC(0-t): 38800 ng·h/mL
Healthy adult males; single i.v. 0.05-6 mg/kg
  Adverse events observed: all non-serious/mild/restorability
Healthy adult males; single i.v. dose-escalation trial
  indication of hemorrhagic risk: not observed
[4]
  Cmax: 20200 ng/mL
[4]; read-out: AUC0-24 (converted)
  AUC(0-t): 25700 ng·h/mL
[5]
  Cmax: 45800 to 58600 ng/mL
[5]; read-out: AUC0-24
  AUC(0-t): 32200 to 40200 ng·h/mL
mice, rats and monkeys
  medicinal effects: reduction of the area of infarction and improvement of neurological symptoms
[6]; human, in vivo
  occurrence of major hemorrhage: not observed
  symptomatic intracranial hemorrhage: not observed
[6]; individual TMS-007 groups and combined group, up to Day 90
  frequencies of adverse event, serious adverse event, side effect, serious side effect, adverse event leading to discontinuation vs placebo (Fisher's exact test): not statistically significant
[6]; up to 24 hours after administration, safety analysis set, TMS-007 groups (1, 3, 6 mg/kg)
  symptomatic intracranial hemorrhage with NIHSS score worsening of 4 or more points: not observed
[7]; 1 mg/kg to placebo group, Day 90, FAS
  Estimated value (logistic model, dose group) for mRS 0-1: −2.425
[7]; 1 mg/kg
  Odds ratio, rate of obtaining outcome of mRS0-2: 0.292
[7]; 3 mg/kg to placebo group, Day 90, FAS
  Estimated value (logistic model, dose group) for mRS 0-1: −0.726
[7]; 3 mg/kg
  Odds ratio, rate of obtaining outcome of mRS0-2: 0.585
[7]; 6 mg/kg to placebo group, Day 90, FAS
  Estimated value (logistic model, dose group) for mRS 0-1: −1.207
[7]; 6 mg/kg
  Odds ratio, rate of obtaining outcome of mRS0-2: 0.506
[7]; [15]
  Estimated value (logistic model, dose group) for mRS 0-1: −1.206
  Odds ratio of mRS (mRS 0 and 1 assigned 1, mRS 2-6 assigned 0): 0.299
[7]; TMS-007 combined group
  Odds ratio, rate of obtaining outcome of mRS0-2: 0.500
[8]
  odds ratio of recanalization: 4.23
[9]; 1 mg/kg
  concentration at 31 min: 7290 ± 1470 ng/mL
  concentration at 2 h: 138 ± 97.8 ng/mL
[9]; 3 mg/kg
  concentration at 31 min: 29300 ± 8420 ng/mL
  concentration at 2 h: 897 ± 575 ng/mL
[9]; 6 mg/kg
  concentration at 31 min: 52200 ± 12800 ng/mL
  concentration at 2 h: 3030 ± 2920 ng/mL
[9]; plasma concentration 31 minutes after initiation of administration, 1 to 6 mg/kg
  slope (b) of regression equation of power model, dose proportionality (two-sided 95% confidence interval): 1.042 (0.895-1.189)
